Experimental data published in patent US9079913B2, “Spiro-oxindole MDM2 antagonists” (The Regents of the University of Michigan, priority 2009, dated 2015).
Where two headings read alike, the source gives them in different places.

How the values were obtained:
[1] = biological target: recombinant human His-tagged MDM2 protein (residues 1-118) (Homo sapiens (Human), UniProt Q00987); test: Fluorescence-polarization MDM2 binding assay;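 note: fluorescence polarization read after three hours of incubation in potassium phosphate buffer containing bovine gamma globulin and Triton X-100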
recombinant human His-tagged MDM2 protein (residues 1-118), sequence (Q00987 1-118): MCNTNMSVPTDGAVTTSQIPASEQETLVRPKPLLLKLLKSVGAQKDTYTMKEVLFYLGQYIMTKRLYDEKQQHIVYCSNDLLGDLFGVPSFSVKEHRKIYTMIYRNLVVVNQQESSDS
Procedure: The assay was performed in the buffer: 100 mM potassium phosphate, pH 7.5; 100 μg/mL bovine gamma globulin; 0.02% sodium azide, 0.01% Triton X-100) and the polarization values were measured after 3 h of incubation using an ULTRA READER (Tecan U.S. Inc., Research Triangle Park, N.C.). […] The Kd value was calculated using the equation: Kd value=IC50−L0/2.
The polarization values were measured after 3 h of incubation. […] Curve fitting was performed using [sequence] PRISM software (GraphPad Software, Inc., San Diego, Calif.). […] Compounds shown in Tables 19A-D as the free base were tested either as the free base or as the CF3CO2H (TFA) or HCl salt.

[2] = system: Isogenic HCT-116 colon cancer cell lines; test: cells; assay type: cell-based;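 note: cells grown in 96-well plates in McCoy's 5A medium with 10% FBS, exposed to compound for 4 days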
Procedure: Cells were seeded in 96-well flat bottom cell culture plates at a density of 2−3×10^3 cells/well with compounds and incubated for 4 days.

[3] = system: cancer cell lines with wild-type p53 / mutated or deleted p53 (ATCC); test: Cell growth assay (WST-8), other cancer cell lines; assay type: cell-based
[4] = Table 19C, read-out: Bidning affinities to MDM2 as determined using FP assay IC50
[5] = Homo sapiens, HCT-116, read-out: Cell growth inhibition using WST assay, HCT116 p53KO IC50, Table 19C, HCT116 p53KO
[6] = Homo sapiens, HCT-116, read-out: Cell growth inhibition using WST assay, HCT116 p53WT IC50, Table 19C, HCT116 p53WT
[7] = Homo sapiens, LNCaP, Table 19C, LNCaP cells, read-out: Cell growth inhibition using WST assay, LNCaP IC50
[8] = Homo sapiens, PC-3, Table 19C, PC3 cells, read-out: Cell growth inhibition using WST assay, PC3 IC50
[9] = Table 19A, FP binding assay, read-out: MDM2 IC50
[10] = Homo sapiens, HCT-116, read-out: HCT-116 (p53-/-) IC50, Table 19A, HCT-116 p53-/-, cell growth
[11] = Homo sapiens, HCT-116, read-out: HCT-116 (p53 wild-type) IC50, Table 19A, HCT-116 p53 wild-type, cell growth
[12] = Homo sapiens, LNCaP, Table 19A, LNCAP cells, p53 wild-type, cell growth, read-out: LNCAP (p53 wild-type) IC50
[13] = Homo sapiens, PC-3, Table 19A, PC-3 cells, deleted p53, cell growth, read-out: PC-3 (deleted p53) IC50
[14] = Homo sapiens, SJSA-1, Table 19A, SJSA-1 cells, p53 wild-type, cell growth, read-out: SJSA-1 (p53 wild-type) IC50
[15] = Table 19B, read-out: Binding affinities to MDM2 protein as determined by FP based assay IC50
[16] = Homo sapiens, HCT-116, read-out: Inhibition of cell growth IC50, HCT116 p53 KO, Table 19B, HCT116 p53 KO
[17] = Homo sapiens, HCT-116, read-out: Inhibition of cell growth IC50, HCT116 p53 WT, Table 19B, HCT116 p53 WT
[18] = Homo sapiens, LNCaP, Table 19B, LNCaP cells, read-out: Inhibition of cell growth IC50, LNCaP
[19] = Homo sapiens, PC-3, Table 19B, PC3 cells, read-out: Inhibition of cell growth IC50, PC3

Row | SMILES | IC50 [1, 15] [µM] | IC50 [2, 16] [µM] | IC50 [2, 17] [µM] | IC50 [3, 18] [µM] | IC50 [3, 19] [µM] | further results
1 | CC(C)(C)C[C@H]1N[C@@H](C(=O)NCC[C@H](O)CO)[C@H](c2ccc(F)c(F)c2)[C@@]12C(=O)Nc1cc(F)c(F)cc12 [MI-519-12] |  |  |  |  |  | IC50 ([1]; Table 19D, read-out: MDM2 Binding Affinities IC50): < 10 µM; IC50 ([2]; Homo sapiens, HCT-116, read-out: HCT116p53KO IC50, Table 19D, HCT116 p53KO): > 10 µM; IC50 ([2]; Homo sapiens, HCT-116, read-out: HCT116p53WT IC50, Table 19D, HCT116 p53WT): < 3 µM; IC50 ([3]; Homo sapiens, LNCaP, Table 19D, LNCaP cells, read-out: LNCaP IC50): < 3 µM; IC50 ([3]; Homo sapiens, PC-3, Table 19D, PC3 cells, read-out: PC3 IC50): > 10 µM
2 | CC(C)(C)C[C@H]1N[C@@H](C(=O)NCCN2CCN(C(=O)CO)CC2)[C@H](c2cccc(Cl)c2)[C@@]12C(=O)Nc1cc(Cl)c(F)cc12 [MI-319-33] |  |  |  |  |  | IC50 [1, 4]: < 1 µM; IC50 [2, 5]: 25.3 ± 2.8 µM; IC50 [2, 6]: 2.1 ± 0.2 µM; IC50 [3, 7]: 1.4 ± 0.2 µM; IC50 [3, 8]: 23.6 ± 5.5 µM
3 | CC[C@H](C)[C@H](N)C(=O)OC1CCC(NC(=O)[C@@H]2N[C@H](CC(C)(C)C)[C@]3(C(=O)Nc4cc(Cl)ccc43)[C@H]2c2cccc(Cl)c2F)CC1 (stereo partly drawn) [MI-904] |  |  |  |  |  | IC50 [1, 9]: < 1 µM; IC50 [2, 10]: 6.1 µM; IC50 [2, 11]: < 3 µM; IC50 [3, 12]: < 3 µM; IC50 [3, 13]: 3.1 µM; IC50 [3, 14]: < 3 µM
4 | CC(C)CC(C)(C)C[C@H]1N[C@@H](C(=O)NCC[C@H](O)CO)[C@H](c2cccc(Cl)c2F)[C@@]12C(=O)Nc1cc(F)c(F)cc12 [MI-732] | < 1 | 10.2 ± 4.8 | 0.7 ± 0.1 | 0.7 | 5.8 | 
5 | CC(C)CC(C)(C)C[C@H]1N(C)[C@@H](C(=O)NCC[C@H](O)CO)[C@H](c2cccc(Cl)c2)[C@@]12C(=O)Nc1cc(Cl)c(F)cc12 [MI-726] | < 5 | 8 ± 0.8 | 2.3 ± 0.8 | 2.3 ± 0.3 | 5.1 ± 1.4 | 
6 | CC(C)(C)C[C@H]1N[C@@H](C(=O)NC2CN(CCO)C2)[C@H](c2cccc(Cl)c2F)[C@@]12C(=O)Nc1cc(Cl)ccc12 [MI-912] |  |  |  |  |  | IC50 [1, 9]: < 3 µM; IC50 [2, 10]: > 10 µM; IC50 [2, 11]: < 5 µM; IC50 [3, 12]: < 5 µM; IC50 [3, 13]: > 5 µM; IC50 [3, 14]: < 5 µM
7 | CC(C)CC(C)(C)C[C@H]1N(C)[C@@H](C(=O)NCC[C@H](O)CO)[C@H](c2ccc(F)c(Cl)c2)[C@@]12C(=O)Nc1cc(F)c(F)cc12 [MI-738] | > 3 | 8.2 ± 0.6 | 8.5 ± 2.1 | 4.8 ± 1 | 8.5 ± 0.6 | 
8 | CN(C)C[C@@H](O)CCNC(=O)[C@@H]1N[C@H](CC(C)(C)C)[C@]2(C(=O)Nc3cc(Cl)c(F)cc32)[C@H]1c1ccc(F)c(Cl)c1 [MI-319-28] |  |  |  |  |  | IC50 [1, 4]: < 5 µM; IC50 [2, 5]: > 5 µM; IC50 [2, 6]: < 5 µM; IC50 [3, 7]: < 5 µM; IC50 [3, 8]: > 5 µM
9 | CN1[C@@H](C(=O)NCC[C@H](O)CO)[C@H](c2cccc(Cl)c2)[C@@]2(C(=O)Nc3cc(Cl)c(F)cc32)[C@H]1CCC1CCCC1 [MI-713] | < 10 | 4.3 ± 0.7 | 4.9 ± 1.4 | 2.7 ± 0.7 | 6.1 ± 2.1 | 
10 | CC(C)(C)C[C@H]1N[C@@H](C(=O)NCCN2CCOCC2)[C@H](c2cccc(Cl)c2F)[C@@]12C(=O)Nc1cc(F)c(F)cc12 [MI-721] | < 3 | 18.4 ± 5.4 | 1.5 ± 0.3 | 1.4 | 15.2 ± 1.4 | 
11 | CC(C)(C)C[C@H]1N[C@@H](C(=O)NC2CN(C(=O)NC3CCCCC3)C2)[C@H](c2cccc(Cl)c2F)[C@@]12C(=O)Nc1cc(Cl)ccc12 [MI-913] |  |  |  |  |  | IC50 [1, 9]: < 3 µM; IC50 [2, 10]: 8.8 µM; IC50 [2, 11]: < 5 µM; IC50 [3, 12]: < 5 µM; IC50 [3, 13]: 4.9 µM; IC50 [3, 14]: < 5 µM
12 | CC(C)CC(C)(C)C[C@H]1N[C@@H](C(=O)NCC[C@H](O)CO)[C@H](c2ccc(F)c(Cl)c2)[C@@]12C(=O)Nc1cc(F)c(F)cc12 [MI-736] | < 1 | 4.4 ± 0.9 | 1 ± 0.2 | 0.9 | 6.3 ± 1.2 | 
13 | CC(=O)N1CC(NC(=O)[C@@H]2N[C@H](CC(C)(C)C)[C@]3(C(=O)Nc4cc(Cl)ccc43)[C@H]2c2cccc(Cl)c2F)C1 [MI-915] |  |  |  |  |  | IC50 [1, 9]: < 3 µM; IC50 [2, 10]: > 30 µM; IC50 [2, 11]: < 10 µM; IC50 [3, 12]: < 10 µM; IC50 [3, 13]: > 30 µM; IC50 [3, 14]: < 10 µM
14 | CC(C)CC(C)(C)C[C@H]1N[C@@H](C(=O)NCC[C@H](O)CO)[C@H](c2cccc(Cl)c2)[C@@]12C(=O)Nc1cc(Cl)c(F)cc12 [MI-725] | < 1 | 5.8 ± 2.9 | 0.7 | 0.8 ± 0.1 | 4.7 ± 1 | 
15 | CN1[C@@H](C(=O)NCC[C@H](O)CO)[C@H](c2cccc(Cl)c2)[C@@]2(C(=O)Nc3cc(Cl)c(F)cc32)[C@H]1CC(C)(C)C [MI-708A] | > 3 |  |  |  |  | IC50 ([2]; read-out: Inhibition of cell growth IC50, HCT116 p53 KO, Table 19B, HCT116 p53 KO): 95.6 ± 18.2 µM; IC50 ([2]; read-out: Inhibition of cell growth IC50, HCT116 p53 WT, Table 19B, HCT116 p53 WT): 3.8 ± 1 µM; IC50 ([3]; Table 19B, LNCaP cells, read-out: Inhibition of cell growth IC50, LNCaP): 3.5 µM; IC50 ([3]; Table 19B, PC3 cells, read-out: Inhibition of cell growth IC50, PC3): 83.8 ± 11.3 µM
16 | O=C(NCC[C@H](O)CO)[C@@H]1N[C@H](CCCc2cccs2)[C@]2(C(=O)Nc3cc(Cl)c(F)cc32)[C@H]1c1cccc(Cl)c1 [MI-710] | > 1 | 12.4 ± 1.2 | 1.3 ± 0.3 | 1.2 ± 0.2 | 12.4 ± 1.9 | 
17 | CC(C)(C)C[C@H]1N[C@@H](C(=O)NCC[C@H](O)CO)[C@H](c2cc(Cl)ccn2)[C@@]12C(=O)Nc1cc(Cl)c(F)cc12 [MI-319-35] |  |  |  |  |  | IC50 [1, 4]: < 10 µM; IC50 [2, 5]: > 10 µM; IC50 [2, 6]: 4.8 ± 0.5 µM; IC50 [3, 7]: 3.2 ± 0.3 µM; IC50 [3, 8]: > 10 µM
18 | O=C(NCC[C@H](O)CO)[C@@H]1N[C@H](CCCc2ccccc2)[C@]2(C(=O)Nc3cc(Cl)c(F)cc32)[C@H]1c1cccc(Cl)c1 [MI-704] | > 1 | 12.1 ± 1 | 3 ± 0.9 | 6.8 ± 0.2 | 18 ± 5.1 | 
19 | CC(C)(C)C[C@H]1N[C@@H](C(=O)NCCN2CCC(O)CC2)[C@H](c2cccc(Cl)c2)[C@@]12C(=O)Nc1cc(Cl)c(F)cc12 [MI-759] |  |  |  |  |  | IC50 [1, 9]: < 1 µM; IC50 [2, 10]: 5.2 ± 1 µM; IC50 [2, 11]: 1.4 ± 0.6 µM; IC50 [3, 12]: 1.4 ± 0.1 µM; IC50 [3, 13]: 5.5 ± 2.3 µM
20 | O=C(NCC[C@H](O)CO)[C@@H]1N[C@H](CCc2ccco2)[C@]2(C(=O)Nc3cc(Cl)c(F)cc32)[C@H]1c1cccc(Cl)c1 [MI-715B] | < 5 | > 10 | 2.7 ± 1 | 3 ± 0.7 | > 10 | 
21 | CC(C)CC(C)(C)C[C@H]1N(C)[C@@H](C(=O)NCC[C@H](O)CO)[C@H](c2cccc(Cl)c2F)[C@@]12C(=O)Nc1cc(Cl)c(F)cc12 [MI-733] | > 1 | 8.7 ± 0.9 | 2.4 ± 0.3 | 2.2 ± 0.5 | 5.4 ± 1.7 | 
22 | CC(C)CC(C)(C)C[C@H]1N[C@@H](C(=O)NCCN2CCOCC2)[C@H](c2cccc(Cl)c2F)[C@@]12C(=O)Nc1cc(F)c(F)cc12 [MI-730] | < 1 | 7.8 ± 0.7 | 1.4 ± 0.3 | 1.7 ± 0.5 | 6.3 ± 1.4 | 
